From EP4620466A1, “TRIMETHOXYSTYRYL DERIVATIVES FOR USE IN THE TREATMENT OF PACLITAXEL-RESISTANT CANCER” (Instituto de Investigación Biomédica de Salamanca De la …, priority 2024, dated 2025)

Assays:
Type in all cases: cell-based
[1] = test system: CAL33 RPTX; test: MTT cell viability assay in paclitaxel-resistant cell line; details: for sensitivity of paclitaxel-resistant cells (cell viability): CAL33 RPTX compared with parental CAL33, 24, 48 and 72 hours of exposure, six doses (Figures 1 and 2)
Experimental: • Figure 1. Comparison of the effect on cell viability in the parental and paclitaxel-resistant CAL33 cell lines after 24, 48 and 72 hours of exposure to six different doses of paclitaxel. X axis, time (hours). Y axis, cell viability (%). • Figure 2. Comparison of the effect on cell viability in the parental and paclitaxel-resistant CAL33 cell lines after 24, 48 and 72 hours of exposure to six different doses of Compound 39. X axis, Compund 39 (nM). Y axis, cell viability (%). *p-value < 0.05. **p-value < 0.01. ***p-value < 0.001.
In order to characterise resistance to taxanes in HNSCC, a paclitaxel-resistant cell line was generated from the CAL33 cell line, derived from tongue carcinoma, following the method of progressively increasing the dose of cytotoxic agent on the cells in culture. The generation of a stable paclitaxel-resistant cell line was confirmed by an MTT cell viability assay, named CAL33 RPTX (Figure 1).
In order to search for an alternative treatment with a similar but effective cellular effect on paclitaxel-resistant HNSCC cells, a cell viability assay was performed to test the response to Compound 39 of the CAL33 and CAL33 RPTX cell lines.

[2] = test system: HeLa cells; test: Cell proliferation assay (XTT), cytostatic activity; details: Homo sapiens, 72-h treatment, XTT cell proliferation kit
Experimental: […] cells were seeded in 96-well plates and incubated in the presence or the absence of the indicated compounds at concentrations ranging from 10^-5 to 10^-12 M. The cytostatic activity was measured after 72-h treatments using the XTT (sodium 3'-[1-(phenylaminocarbonyl)-3,4-tetrazolium]-bis(4- methoxy-6-nitro)-benzenesulfonic acid hydrate) cell proliferation kit (Roche Molecular Biochemicals; Mannheim, Germany) following the manufacturer's specifications. Each condition was seeded in triplicate, and experiments were repeated three times to calculate IC values by non-linear regression fitting the data.

[3] = test system: HeLa cells; test: Cell proliferation assay with and without verapamil (MDR transporter check)
[4] = Homo sapiens, without verapamil (control), compounds for 72 h, read-out: potency in the absence of verapamil
[5] = read-out: potency in the presence of 10 µM verapamil, incubated with 10 µM verapamil for 2 h, then compounds for 72 h

IC50 [2]	IC50 [3, 4]	IC50 [3, 5]	Compound	sensitivity of paclitaxel-resistant cells (cell viability) [1]	effect on tumour cell viability ([1]; at very low doses, CAL33 and CAL33 RPTX cell lines (Figure 2))
1400 nM	> 1000 nM	> 1000 nM	COc1cc(NS(=O)(=O)c2ccc3c(ccn3C)c2)cc(OC)c1 [Compound 45, N-(3,5-dimethoxyphenyl)-1-methyl-1H-indole-5-sulfonamide]		
10.8 nM	10.8 nM	8.4 nM	COc1cc(NS(=O)(=O)c2ccc3c(ccn3C)c2)cc(OC)c1OC [Compound 44, 1-Methyl-N-(3,4,5-trimethoxyphenyl)-1H-indole-5-sulfonamide]		
206 nM	206 nM	287 nM	COc1cc(NS(=O)(=O)c2ccc3c(c2)c(C=O)cn3C)cc(OC)c1OC [Compound 48, 3-Formyl-1-methyl-N-(3,4,5-trimethoxyphenyl)-1H-indole-5-sulfonamide]		

The remaining lines, values behind:

Compound	IC50 [2]	IC50 [3, 4]	IC50 [3, 5]	sensitivity of paclitaxel-resistant cells (cell viability) [1]	effect on tumour cell viability ([1]; at very low doses, CAL33 and CAL33 RPTX cell lines (Figure 2))
CC(=O)O[C@H]1C(=O)[C@@]2(C)[C@H]([C@H](OC(=O)c3ccccc3)[C@]3(O)C[C@H](OC(=O)[C@H](O)[C@@H](NC(=O)c4ccccc4)c4ccccc4)C(C)=C1C3(C)C)[C@]1(OC(C)=O)CO[C@@H]1C[C@@H]2O [paclitaxel]				resistant	
COc1cc(/C=C\c2ccc3c(c2)c(C(N)=O)cn3C)cc(OC)c1OC [Compound 39, (Z)-1-Methyl-5-(3,4,5-trimethoxystyryl)-1H-indole-3-carboxamide]	1200 nM			maintain sensitivity	pronounced effect
